In brackets after ≈: the same amount, converted by molar mass. Read-outs that look alike come from different tables or passages of the source.
What was measured:
[1] = test system: 30 clinically isolated strains of S. aureus and S. epidermidis; design: method as in PMID 28822236, PMID 29499458; settings: cited from earlier work
[2] = test system: HaCaT (immortalized human keratinocytes); assay: Cytotoxicity, MTT assay; assay type: cell-based; settings: normal cells, 72 h, mean SD
Method: (§1) MTT assay was performed as previously described. Experiments were repeated three times. […] Decreased relative MTT level means decreased cell viability.

[3] = test system: SW480 (primary colon cancer); assay: Cytotoxicity, MTT assay; assay type: cell-based, human; settings: mean SD
Method: as §1

[4] = test system: SW620 (metastatic colon cancer); assay: Cytotoxicity, MTT assay; assay type: cell-based, human; settings: 72 h, mean SD
Method: as §1

[5] = test system: M. tuberculosis Spec. 192; assay: Tuberculostatic activity, Microplate Alamar Blue Assay (MABA); assay type: cell-based, Mycobacterium tuberculosis; settings: Mycobacterium tuberculosis
[6] = test system: M. tuberculosis H37Rv; assay: as above; assay type: cell-based, Mycobacterium tuberculosis; settings: Mycobacterium tuberculosis
[7] = M. tuberculosis Spec. 192, patient isolate fully sensitive to tuberculostatics, MABA, read-out: MIC
[8] = M. tuberculosis H37Rv, standard strain, MABA, read-out: MIC

In the case of “complex with 1-1-(3,4-dichlorophenyl)-3-[3-(trifluoromethyl) phenyl]thiourea”, the MIC [1] is given as 0.5 to 2 µg/mL.
Work on N.N.[Cl][Pt][Cl] [Cisplatin, cisplatin, reference compound] yielded an IC50 [2] of 6.3 ± 0.7 µM, an IC50 ([3]; 72 h) of 10.4 µM and an IC50 [4] of 6.7 ± 1.1 µM.
COc1cccc2c1C(=O)c1c(O)c3c(c(O)c1C2=O)C[C@@](O)(C(=O)CO)C[C@@H]3O[C@H]1C[C@H](N)[C@H](O)[C@H](C)O1 [Doxorubicin, doxorubicin, reference compound] showed an IC50 ([2]; Homo sapiens, HaCaT) of 0.29 ± 0.11 µM and an IC50 ([3]; Homo sapiens, SW480, 72 h) of 0.75 ± 0.1 µM.
Molecule NNC(=O)c1ccncc1 [Isoniazid (INH), Isoniazid, reference compound] has an MIC ([5]; SPEC.192) of 0.125 µg/mL (≈ 0.911 µM) and an MIC ([6]; H37RV) of 0.125 µg/mL (≈ 0.911 µM).
CO[C@H]1/C=C/O[C@@]2(C)Oc3c(C)c(O)c4c(O)c(c(/C=N/N5CCN(C)CC5)c(O)c4c3C2=O)NC(=O)/C(C)=C\C=C\[C@H](C)[C@H](O)[C@@H](C)[C@@H](O)[C@@H](C)[C@H](OC(C)=O)[C@@H]1C [Rifampicin (RMP), Rifampicin, reference compound] gave an MIC [5, 7] of 1 µg/mL (≈ 1.22 µM) and an MIC [6, 8] of 1 µg/mL (≈ 1.22 µM).
[H]/N=C(/N)N[C@H]1[C@H](O)[C@@H](O)[C@H](O[C@@H]2O[C@@H](C)[C@](O)(C=O)[C@H]2O[C@@H]2O[C@@H](CO)[C@H](O)[C@@H](O)[C@@H]2NC)[C@@H](N/C(N)=N\[H])[C@@H]1O [Streptomycin (SM), Streptomycin, reference compound] showed an MIC [5, 7] of 1 µg/mL (≈ 1.72 µM) and an MIC [6, 8] of 1 µg/mL (≈ 1.72 µM).
For CC[C@@H](CO)NCCN[C@@H](CC)CO [Ethambutol (EMB), Ethambutol, reference compound], the MIC [5, 7] was 2 µg/mL (≈ 9.79 µM) and the MIC [6, 8] was 2 µg/mL (≈ 9.79 µM).
